Test results taken from US4757079A, “Anti-hypertensive piperidine compounds” (Dynamac Corporaton, priority 1986, dated 1988).
Where a name gives a salt, the structure may show the parent alone.

Columns and labels:
guinea pig ileum = experiment: anticholinergic activity on the guinea pig ileum
cat [1] = experiment: blood pressure and heart rate in the cat (i.v.); type: in vivo
[2] = tested on: peripheral muscarinic receptors; experiment: response to vagal stimulation or to exogenous acetylcholine in the cat; type: in vivo; conditions: 1 to 10 mg/kg i.v.
nictitating membrane = experiment: responsiveness of the nictitating membrane to pre- or post-ganglionic stimulation in the cat; type: in vivo; conditions: 1 to 10 mg/kg i.v.
neuromuscular function = experiment: neuromuscular twitch response in the cat; type: in vivo
cat [3] = experiment: heart rate and mean blood pressure in cats pretreated with hexamethonium and atropine; type: in vivo; conditions: compared with absence of the blocking agents
[4] = tested on: rat hemidiaphragm preparation; experiment: rat hemidiaphragm preparation, perfusate volume (vasodilatory effect)

`CN1CCC(/C=C/c2cccc3ccccc23)CC1` [B-120, 1-methyl-4-(1-naphthylvinyl)piperidine hydrochloride] was tested. Which anticholinergic activity (guinea pig ileum) did it give?
The anticholinergic activity was “essentially devoid of anticholinergic activity”.

And the “anticholinergic potency on a relative scale vs atropine sulfate” value (guinea pig ileum; relative to atropine sulfate)?
The value was 5.5×10^-4.

And the “Heart Rate” value (cat [1]; 5.0 mg/kg i.v., cat)?
Its value is 90 % Control.

And the “Mean Blood Pressure” value (cat [1]; 5.0 mg/kg i.v., cat)?
The value was 60 % Control.

And the “Pulse Pressure” value (cat [1]; 5.0 mg/kg i.v., cat)?
The value was 110 % Control.

What about the “Heart Rate” value (cat [1]; 10.0 mg/kg i.v., cat) of the same molecule?
Its value is 80 % Control.

And the “Mean Blood Pressure” value (cat [1]; 10.0 mg/kg i.v., cat)?
The value was 30 % Control.

What about the “Pulse Pressure” value (cat [1]; 10.0 mg/kg i.v., cat) of the same molecule?
The value was 70 % Control.

What about the heart rate rhythm (cat [1]; 50 mg/kg i.v., cat) of the same molecule?
The heart rate rhythm was “did not show evidence of abnormal rhythm”.

And the “Heart Rate” value (cat [1]; 50.0 mg/kg i.v., cat)?
The value was 0 % Control.

And the “Mean Blood Pressure” value (cat [1]; 50.0 mg/kg i.v., cat)?
Its value is 0 % Control.

And the “Pulse Pressure” value (cat [1]; 50.0 mg/kg i.v., cat)?
Its value is 0 % Control.

And the Heart Rate (cat [1]; 0.5 to 50 mg/kg i.v., cat)?
Its Heart Rate is “dose-related decrease”.

And the Mean Blood Pressure (cat [1]; 0.5 to 50 mg/kg i.v., cat)?
Its Mean Blood Pressure is “dose-related decrease”.

What about the “diastolic versus systolic blood pressure” value (cat [1]; 0.5 to 50 mg/kg i.v., cat) of the same molecule?
Its value is “greater decrease in diastolic than systolic blood pressure”.

And the death (cat [1]; in vivo)?
The death was “death appeared to be caused by hypotensive crisis”.

What about the “response to exogenous acetylcholine” value [2] of the same molecule?
The value was “did not alter the response”.

What about the “response to vagal stimulation” value [2] of the same molecule?
The value was “did not alter the response”.

What about the “responsiveness of the nictitating membrane to pre- or post-ganglionic stimulation” value (nictitating membrane) of the same molecule?
Its value is “did not diminish the responsiveness”.

What about the neuromuscular twitch response (neuromuscular function) of the same molecule?
Its neuromuscular twitch response is “no significant decrease”.

What about the “reduction in heart rate” value (cat [3]) of the same molecule?
The value was “comparable to that induced in the absence of the blocking agents”.

What about the “reduction in mean blood pressure” value (cat [3]) of the same molecule?
The value was “comparable to that induced in the absence of the blocking agents”.

What about the “increase in perfusate volume” value ([4]; 17.5 mg/L) of the same molecule?
The value was “not significant”.

What about the “perfusate volume after removal of the B-120” value ([4]; after 35 mg/L) of the same molecule?
Its value is “returned to normal”.
